Source: US20240173432A1, “Compositions and Methods for Treatment of Myotonic Dystrophy Type 1 with CRISPR/SluCas9” (Vertex Pharmaceuticals Incorporated, priority 2021, published 2024)

Legend:
[1] = system: CUG foci in primary DM1 patient myoblasts; assay: Single-cut screening: FISH staining of CUG RNA foci; assay type: cell-based, human; conditions: single sgRNA, primary DM1 patient myoblasts; for % of CUG foci free nuclei (DNA-PKi): DNA-PKi treated
Outline: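 CD56-purified primary DM1 patient myoblasts nucleofected with SluCas9:sgRNA RNP (30:90 pmol, single-cut), then DMSO or 3 μM DNA-PK inhibitor for 48 h. At 72 h post-nucleofection, cells fixed and stained for CUG foci with Cy3-PNA(CAG)5 probe (1 ng/μL, 80 °C), co-stained for MBNL1 and Hoechst, imaged by high-content confocal microscopy.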

[2] = system: 3′ UTR of the human DMPK gene; assay: Single-cut screening: indel editing efficiency by Sanger sequencing and ICE analysis in primary DM1 patient myoblasts; assay type: cell-based; conditions: vehicle-treated samples; for Indel efficiency: single SluCas9 sgRNA RNP in primary DM1 patient myoblasts, Sanger sequencing and ICE analysis; for indel efficiency (Sanger sequencing and ICE analysis): single-cut, SluCas9 RNP, 72 hrs post nucleofection, wild-type allele
Description: Genomic DNA of DM1 myoblasts was isolated with the Kingfisher Flex purification system (Thermal Fisher) in 96-well format following the manufacturer's instruction. The DMPK 3′ UTR region was amplified using GoTaq Green Master Mix (Promega) and PCR primers flanking the 3′ UTR region. […] Amplification was conducted using the following cycling parameters: 1 cycle at 95° C. for 2 min; 40 cycles of 95° C. for 30 sec, 63° C. for 30 sec, and 72° C. for 90 sec; 1 cycle at 72° C. for 5 min. Only the wild type allele is amplified by the PCR reaction. The PCR products were analyzed on the TapeStation system with High Sensitivity D5000 ScreenTape (Agilent Technologies).
PCR products were purified and sequenced by Sanger sequencing. […] Indel values were estimated using the ICE analysis algorithm (Synthego) with the chromatogram files obtained from Sanger sequencing.
RNPs were assembled with recombinant SluCas9 protein and chemically modified sgRNAs at a ratio of 1:3 (protein:sgRNA). For SINGLE-cut screening, RNP complexes were assembled with 30 pmol of SluCas9 and 90 pmol of sgRNA in P5 Primary Cell Nucleofector Solution (Lonza). After incubation at room temperature for 20 minutes, 10 μL of RNP complex were mixed with two hundred thousand of primary myoblasts resuspended in 10 μL of P5 Nucleofector Solution. For DOUBLE-cut screening, RNP complexes were first assembled for individual sgRNAs with 20 pmol of SluCas9 protein and 60 pmol of sgRNAs in 5 μL of P5 Nucleofector Solution. After incubation at room temperature for 20 minutes, the two RNP complexes (one for upstream sgRNA and one for downstream sgRNA) were mixed at 1:1 ratio and then further mixed with two hundred thousand of primary myoblasts resuspended in 10 μL of P5 Nucleofector Solution.
The Nucleofector 96-well Shuttle System (Lonza) was used to deliver the SluCa9/sgRNA RNPs into primary DM1 patient myoblasts using the nucleofection program CM138. […] 72 hrs post nucleofection, two wells of DMSO-treated myoblasts and two wells of DNA-PKi-treated myoblasts from each nucleofection were harvested for genomic DNA extraction using the Kingfisher Flex purification system (Thermal Fisher), whereas one well of DMSO-treated myoblasts and one well of DNA-PKi-treated myoblasts were stained for RNA foci by FISH staining.
To assess the efficiency of individual SluCas9 sgRNAs for inducing indel editing and CTG repeat excision, single-cut screening was performed in which individual SluCas9 sgRNAs and recombinant SluCas9 protein were assembled into ribonucleoprotein (RNP) and delivered into primary DM1 patient myoblasts. […] Seventy-two (72) hrs post nucleofection, myoblasts were subjected to either genomic DNA isolation or RNA foci staining by fluorescence in situ hybridization (FISH).
Sanger sequencing and ICE analysis were then performed to quantify the frequency of indels induced by individual sgRNAs. It is of note that only the vehicle-treated samples were used for ICE analysis.
Editing efficiency was assessed by Sanger sequencing and ICE analysis. […] The * indicates the sgRNAs with R2<0.9 in the ICE analysis (in-house QC standard for reliable ICE analysis).

[3] = system: CAG foci in primary DM1 patient myoblasts; assay: Single-cut screening: CAG foci staining; assay type: cell-based, human; conditions: single sgRNA; for % of CAG foci positive nuclei (DNA-PKi): DNA-PKi treated
Outline: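 Primary DM1 patient myoblasts were PFA-fixed and hybridized with […] (1 ng/μL, 15 min at 80° C) in 30% formamide/2×SSC, followed by anti-MBNL1 immunostaining and Hoechst counterstain. CAG RNA foci were quantified by high-content confocal imaging after single-cut SuCas9 sgRNA editing.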

Substance	% of CUG foci free nuclei (DNA-PKi) [1] [%]	% of CUG foci free nuclei (Vehicle) [1] [%]	Indel efficiency [2] [%]	% of CAG foci positive nuclei (DNA-PKi) [3] [%]	% of CAG foci positive nuclei (Vehicle) [3] [%]	indel efficiency (Sanger sequencing and ICE analysis) [2]
CAGCGCAAGTGAGGAGGGGGGC (guide RNA; chemistry not fully specified) [SluD46]	34.71	8.24	46	1.16	1.69	
CAGGCTGAGGCCCTGACGTGGA (guide RNA; chemistry not fully specified) [SluD07]	29.79	12.52	28	0.82	2.37	
CAGTGCATCCAAAACGTGGATT (guide RNA; chemistry not fully specified) [SluD75]	22.6	11.9	17	1.9	1.56	
CAGTTCACAACCGCTCCGAGCG (guide RNA; chemistry not fully specified) [SluU23]	29.8	11.23	5	1.53	1	
CCAAAACGTGGATTGGGGTTGT (listed as DNA, chemistry not fully specified) [SluD73]	32.52	12.95	65	2.33	2.52	high editing IN4DEL efficiency
CCACGCTCGGAGCGGTTGTGAA (guide RNA; chemistry not fully specified) [SluU24]	50.23	20.62	28	1.56	1	
CCAGCCGGCTCCGCCCGCTTCG (listed as DNA, chemistry not fully specified) [SluD56]	31.7	13.88	70	2.91	1.04	high editing IN4DEL efficiency
CCAGGCTGAGGCCCTGACGTGG (listed as DNA, chemistry not fully specified) [SluD06]	23.09	24.51	55	1.35	3.12	high editing IN4DEL efficiency
CCAGTTCACAACCGCTCCGAGC (guide RNA; chemistry not fully specified) [SluU22]	50.21	27.56	41	1.28	0.96	
CCATCCACGTCAGGGCCTCAGC (guide RNA; chemistry not fully specified) [SluD08]	48.28	27.09	45	1.22	5	
CCCAACAACCCCAATCCACGTT (guide RNA; chemistry not fully specified) [SluD70]	30.47	22.75	14	2.45	2.33	
CCCCCTAGCggccggggaggga (guide RNA; as printed in the source, key not given here) [SluU44]	47	12.6	16	1.77	0.7	
CCCCGGGCACTCAGTCTTCCAA (guide RNA; chemistry not fully specified) [SluU12]	50.23	16.44	20	1.38	1.29	
CCCCGTTGGAAGACTGAGTGCC (guide RNA; chemistry not fully specified) [SluU09]	74.97	26.05	65	1.22	1.48	
CCCCTCCTCACTTGCGCTGCTC (guide RNA; chemistry not fully specified) [SluD47]	28.63	8.95	18	1.11	1	
CCCGGGCACTCAGTCTTCCAAC (guide RNA; chemistry not fully specified) [SluU11]	52.22	19.12	21	1.27	1.44	
CCCGTTGGAAGACTGAGTGCCC (listed as DNA, chemistry not fully specified) [SluU10]	72.18	27.04	81	0.66	2	high editing IN4DEL efficiency
CCCTAGAACTGTCTTCGACTCC (guide RNA; chemistry not fully specified) [SluU03]	49.49	11.12	9	2.04	1.05	
CCGAGAGCAGCGCAAGTGAGGA (guide RNA; chemistry not fully specified) [SluD50]	30.13	7.64	4	2.2	1.81	
CCGGGCCCGCCCCCTAGCggcc (guide RNA; as printed in the source, key not given here) [SluU37]	30.58	8.09	15	2.28	0.72	
CCTCCGACTCGCTGACAGGCTA (guide RNA; chemistry not fully specified) [SluD67]	25.54	10.06	39	1.8	0.69	
CCTGACGTGGATGGGCAAACTG (guide RNA; chemistry not fully specified) [SluD09]	33.83	12.5	5	1.48	1.16	
